Test system: acute renal failure (ARF) rat model
Settings: for plasma glucose: normal rats, 180 minutes, imeglimin and metformin 100 mg/h/kg, phenformin 50 mg/h/kg i.v.
Description: The creatinine level, correlated with the degree of the renal function failure, was tested for each rat 7 days after the first injection of gentamicin. […] The creatinine level was determined on the Monarch Chemistry Systems using the IL Test creatinine in rat plasma samples. This monochromatic analysis is based on the formation of a red colored complex between creatinine and picric acid under alkaline conditions.

Row | Compound | plasma glucose | effect on plasma [HCO3−] (rat, in vivo) | effect on plasma lactate (rat, in vivo) | effect on plasma lactate level (rat, in vivo) | lactic acidosis (rat, in vivo) | plasma H+ concentration / metabolic acidosis signs (rat, in vivo) | plasma accumulation (rat, in vivo) | plasma glucose after sharp fall (rat, in vivo)
1 | CN(C)C(=N)N=C(N)N [metformin] | 4 ± 0.7 mmol/L | significantly decreased plasma concentration of [HCO3^−] | significantly increased plasma lactate | significantly increased lactatemia | induced lactic acidosis | increased significantly plasma H+ concentration | plasma accumulation of metformin and imeglimin was observed | 1.9 ± 1 mmol/L
2 | [H]/N=C(/N)N/C(=N/[H])NCCc1ccccc1 [phenformin] | 2.9 ± 1 mmol/L | significantly decreased plasma concentration of [HCO3^−] | significantly increased plasma lactate | significantly increased lactatemia | induced lactic acidosis | increased significantly plasma H+ concentration |  | 2.4 ± 1.1 mmol/L

Reference: US12036226B2, “Methods of treating subjects having diabetes with chronic kidney disease” (Poxel SA, priority 2018, dated 2024)
